Data on nine molecules can be found in article PMC6261293 (European journal of medicinal chemistry, 2018).

In data set [1] the test system is c-Jun phosphorylation in MonoMac-6 cells. Description: c-Jun. The settings on record: 30 min pretreatment, LPS 250 ng/ml 30 min. The format is cell-based, human.
Data set [2] concerns NF-κB/AP-1 reporter activity in THP-1Blue cells. Description: LPS-induced NF-κB/AP-1 alkaline phosphatase reporter assay. Type of data set: cell-based, human. The settings on record: for inhibition of LPS-induced NF-κB/AP-1 activity: concentrations up to 50 µM.
Data set [3] concerns IL-6 production by MonoMac-6 cells. Kind of data set: LPS-induced IL-6 production. The format is cell-based, human. Particulars: for inhibition of LPS-induced IL-6 production: concentrations up to 50 µM; for IL-6 IC50: MonoMac-6 cells, 250 ng/ml LPS, 24 h, N.A. = no inhibition at concentrations <40 µM.
For the next data set, the target named is JNK2 (Homo sapiens, UniProt P45984). Description: KINOMEscan competition binding, JNK2. The settings on record: N.A. = no inhibition at concentrations <40 µM.
A further data set concerns the target JNK3 (Homo sapiens, UniProt P53779). Description: KINOMEscan competition binding, JNK3. The settings on record: N.A. = no inhibition at concentrations <40 µM.
The target in a further data set is TRKA (Homo sapiens, UniProt P04629). Particulars: ref [29], [30]; cited from earlier work.
A short description of a further data set: Solubility in DMSO. The settings on record: organic solvent or mixture. The format is physicochemical.
Where [4] appears, read: THP-1Blue cells, 250 ng/ml LPS, 24 h, N.A. = no inhibition at concentrations <40 µM.

In brackets after ≈: the same amount, converted by molar mass.

TRKA, sequence (P04629 33-796): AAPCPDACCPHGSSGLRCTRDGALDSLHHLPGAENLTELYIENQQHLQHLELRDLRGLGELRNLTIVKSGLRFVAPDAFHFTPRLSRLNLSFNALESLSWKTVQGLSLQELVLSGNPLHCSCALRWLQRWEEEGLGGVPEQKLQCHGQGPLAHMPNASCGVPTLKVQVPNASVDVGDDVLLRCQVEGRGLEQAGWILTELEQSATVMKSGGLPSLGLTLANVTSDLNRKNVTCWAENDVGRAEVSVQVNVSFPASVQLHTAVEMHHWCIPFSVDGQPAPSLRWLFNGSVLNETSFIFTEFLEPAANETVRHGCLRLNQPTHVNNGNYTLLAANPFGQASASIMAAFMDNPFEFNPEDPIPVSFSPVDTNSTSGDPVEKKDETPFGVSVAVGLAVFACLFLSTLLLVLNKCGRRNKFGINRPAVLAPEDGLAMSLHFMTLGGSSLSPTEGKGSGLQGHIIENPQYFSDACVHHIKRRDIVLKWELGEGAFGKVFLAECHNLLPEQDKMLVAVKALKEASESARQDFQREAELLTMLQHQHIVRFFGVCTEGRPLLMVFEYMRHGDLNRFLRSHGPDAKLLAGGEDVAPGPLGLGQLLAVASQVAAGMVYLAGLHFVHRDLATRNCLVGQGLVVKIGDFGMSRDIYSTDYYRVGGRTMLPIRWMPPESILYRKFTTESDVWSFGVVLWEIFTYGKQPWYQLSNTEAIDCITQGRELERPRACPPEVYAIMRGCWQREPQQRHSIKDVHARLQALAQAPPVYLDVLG
JNK3, sequence (P53779 whole entry): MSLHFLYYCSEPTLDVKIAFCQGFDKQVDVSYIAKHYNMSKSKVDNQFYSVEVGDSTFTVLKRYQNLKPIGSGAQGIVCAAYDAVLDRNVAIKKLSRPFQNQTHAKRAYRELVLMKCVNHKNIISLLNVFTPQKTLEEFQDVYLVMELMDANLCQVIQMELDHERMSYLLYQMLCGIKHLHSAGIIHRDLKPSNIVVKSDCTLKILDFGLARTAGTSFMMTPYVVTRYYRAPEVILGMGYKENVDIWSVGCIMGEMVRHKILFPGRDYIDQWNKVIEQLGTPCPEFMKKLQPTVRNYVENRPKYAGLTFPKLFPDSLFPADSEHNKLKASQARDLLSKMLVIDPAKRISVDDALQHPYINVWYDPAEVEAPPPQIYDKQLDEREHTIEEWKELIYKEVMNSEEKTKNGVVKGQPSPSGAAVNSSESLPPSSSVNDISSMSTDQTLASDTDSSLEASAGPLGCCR
JNK2, sequence (P45984 whole entry): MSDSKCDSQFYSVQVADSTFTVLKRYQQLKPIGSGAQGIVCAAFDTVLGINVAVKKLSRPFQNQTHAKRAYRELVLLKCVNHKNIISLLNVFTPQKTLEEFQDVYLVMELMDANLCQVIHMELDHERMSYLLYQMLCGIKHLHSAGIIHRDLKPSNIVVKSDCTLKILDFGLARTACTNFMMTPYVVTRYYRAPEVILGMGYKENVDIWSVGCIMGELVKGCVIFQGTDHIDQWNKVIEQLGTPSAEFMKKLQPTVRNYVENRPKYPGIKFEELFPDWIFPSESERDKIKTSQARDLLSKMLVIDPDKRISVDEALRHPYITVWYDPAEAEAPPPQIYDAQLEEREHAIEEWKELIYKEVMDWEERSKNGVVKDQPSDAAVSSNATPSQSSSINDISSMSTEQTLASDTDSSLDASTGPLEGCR

As for `CCOC(=O)CO/N=C1\c2ccccc2-c2nc3ccccc3nc21` [10c, 11H-Indeno[1,2-b]quinoxalin-11-one O-(O-ethylcarboxymethyl) oxime], in data set [1], the “inhibition of c-Jun phosphorylation” value is on record as “inhibited c-Jun phosphorylation”. Take `O=C1c2ccccc2-n2c1nc1ccccc1c2=O` [Trp, tryptanthrin, reference compound]: the “inhibition of LPS-induced NF-κB/AP-1 activity” value in data set [2] is on record as “did not inhibit”. Besides, in data set [3], the “inhibition of LPS-induced IL-6 production” value is reported as “did not inhibit”. In addition, the “JNK2 Kd” value at JNK2 was “inactive”. In addition, the “JNK3 Kd” value at JNK3 was “inactive”. Regarding “anthra[1–9-cd]pyrazol-6(2H)-one [SP600125, reference compound]”, the IC50 in data set [2] (read-out: NF-κB/AP-1 IC50, THP-1Blue cells, 250 ng/ml LPS, 24 h, N.A. = no inhibition at concentrations <40 µM) was 3.4 ± 0.5 µM. For `O=C(O/N=C1\c2ccccc2-c2nc3ccccc3nc21)c1ccco1` [IQ-3], at TRKA, the “binding to TRK-A” value is “did not bind”. For the molecule `[Na+].[O-]/N=C1/c2ccccc2-c2nc3c(Cl)cc(Cl)cc3nc21` [6b, 6,8-Dichloro-11H-indeno[2,3-b]quinoxalin-11-one oxime], in data set [2] (setting [4]), the “NF-κB/AP-1 IC50” value was “did not inhibit”. Also, the “IL-6 IC50” value in data set [3] is on record as “did not inhibit”.

With `[Na+].[O-]/N=C1/c2ccccc2-c2nc3ccc(C(F)(F)F)cc3nc21` [6h, 8-Trifluoromethyl-11H-indeno[2,3-b]quinoxalin-11-one oxime], the “NF-κB/AP-1 IC50” value in data set [2] (setting [4]) is given as “did not inhibit”. In data set [3], the “IL-6 IC50” value is “did not inhibit”. Regarding `O=C1c2ccccc2-c2nc3ccncc3nc21` [compound 5, 10H-Indeno[1,2-b]pyrido[3,4-e]pyrazin-10-one], in data set [2], the “inhibition of LPS-induced NF-κB/AP-1 activity” value was “did not inhibit”. Also, in data set [3], the “inhibition of LPS-induced IL-6 production” value is recorded as “did not inhibit”.

As for `O/N=C1\c2ccccc2-c2nc3ccccc3nc21` [IQ-1, 11H-indeno[1,2-b]quinoxalin-11-one oxime], the solubility in the data set “Solubility in DMSO” was about 10 mM (≈ 2470 µg/mL). Moreover, on TRKA, the “binding to TRK-A” value is “did not bind”. Consider `O=C1c2ccccc2-c2nc3ncccc3nc21` [3a, 6H-Indeno[1,2-b]pyrido[3,2-e]pyrazin-6-one], for which, in data set [2], the “inhibition of LPS-induced NF-κB/AP-1 activity” value is reported as “did not inhibit”. Moreover, the “inhibition of LPS-induced IL-6 production” value in data set [3] is given as “did not inhibit”.
